Measurements from US12691111B2, “SETD2 inhibitors and related methods and uses, including combination therapies” (EPIZYME, INC., priority 2020, dated 2026).

Assays:
[1] = system: L363; experiment: 7-day co-treatment combination study, CellTiter-Glo, Loewe Volume; type: cell-based; conditions: L363 multiple myeloma cells, 7-day co-treatment with Cpd. No. 15
Experimental: (§1) Multiple myeloma (MM) and mantle cell lymphoma (MCL) Cell line cultures in log-linear growth rate were treated with combinations of Cpd. No. 15 and combination partners according to a co-treatment model. […] No. 15 and the combination partner. […] Each combination was tested in quadruplicate wells. The final concentration of DMSO (vehicle) in the assay was 0.1% v/v. Fifty microliters of cell line suspension were directly dispensed to the assay-ready plates with an automated multichannel dispenser on to 384-well assay-ready plates. Assay plates were incubated for seven days in a humidified atmosphere of 5% CO2 at 37° C. Quantification of the effect of single agents or combinations on cell viability was performed through measurement of cellular adenosine triphosphate (ATP) using a CellTiter-Glo® (Promega, MadisonWIs.) Luminescent Cell Viability Assay. Luminescence was detected using a SpectraMax M5 microplate reader (Molecular Devices, Sunnyvale, CA). Concentration response plots were generated in GraphPad Prism version 7.0 for Windows, GraphPad Software, (La Jolla, CA) and curves fitted to a four-parameter logistic model with variable slope. Percent of inhibition was calculated at each treatment concentration.
(§2) The results of these combinations are summarized in Tables A and B (multiple myeloma cell lines), and Tables C and D (mantle cell lymphoma cell lines).

[2] = system: NCI-H929; experiment: as above; type: cell-based; conditions: NCI-H929 multiple myeloma cells, 7-day co-treatment with Cpd. No. 15
Experimental: as §1, §2

[3] = system: KMS34; experiment: as above; type: cell-based; conditions: KMS34 multiple myeloma cells, 7-day co-treatment with Cpd. No. 15
Experimental: as §1, §2

[4] = system: MAVER1; experiment: as above; type: cell-based; conditions: MAVER1 mantle cell lymphoma cells, 7-day co-treatment with Cpd. No. 15
Experimental: as §1, §2

[5] = system: MM1.S; experiment: as above; type: cell-based; conditions: MM1.S multiple myeloma cells, 7-day co-treatment with Cpd. No. 15
Experimental: as §1, §2

[6] = system: GRANTA519; experiment: as above; type: cell-based; conditions: GRANTA519 mantle cell lymphoma cells, 7-day co-treatment with Cpd. No. 15
Experimental: as §1, §2

[7] = system: RPMI-8226; experiment: as above; type: cell-based; conditions: RPMI-8226 multiple myeloma cells, 7-day co-treatment with Cpd. No. 15
Experimental: as §1, §2

[8] = system: KMS-28-BM; experiment: as above; type: cell-based; conditions: KMS-28-BM multiple myeloma cells, 7-day co-treatment with Cpd. No. 15
Experimental: as §1, §2

[9] = system: REC1; experiment: as above; type: cell-based; conditions: REC1 mantle cell lymphoma cells, 7-day co-treatment with Cpd. No. 15
Experimental: as §1, §2

[10] = system: Z138; experiment: as above; type: cell-based; conditions: Z138 mantle cell lymphoma cells, 7-day co-treatment with Cpd. No. 15
Experimental: as §1, §2

[11] = system: JEKO1; experiment: as above; type: cell-based; conditions: JEKO1 mantle cell lymphoma cells, 7-day co-treatment with Cpd. No. 15
Experimental: as §1, §2

[12] = system: JVM2; experiment: as above; type: cell-based; conditions: JVM2 mantle cell lymphoma cells, 7-day co-treatment with Cpd. No. 15
Experimental: as §1, §2

[13] = system: MINO; experiment: as above; type: cell-based; conditions: MINO mantle cell lymphoma cells, 7-day co-treatment with Cpd. No. 15
Experimental: as §1, §2

[14] = system: KMS-11; experiment: as above; conditions: KMS-11 multiple myeloma cells, 7-day co-treatment with Cpd. No. 15
[15] = system: SUDHL-2; experiment: Pre-treatment model combination study (4 days pre-treatment, 3 days co-treatment), CellTiter-Glo, Loewe Volume; type: cell-based; conditions: SUDHL-2 diffuse large B-cell lymphoma cells, 4 days Cpd. No. 15 pre-treatment then 3 days co-treatment
Experimental: (§3) Diffuse large B-cell lymphoma cells were seeded into flasks and pre-treated with several concentrations of Cpd. No. 15 or DMSO. Cells were then split adjusted to initial density, replated and co-treated Cpd. No. 15 and a second agent of interest using the HP D300 digital dispenser (Tecan Group, Mannedorf, Switzerland) in tissue culture treated solid white 384-well plates for additional 3 days. […] After 3 days cotreatment, cell viability was measured via ATP content using CellTiter-Glo® (Promega, Madison, WI) and luminescence was detected using a SpectraMax M5 microplate reader (Molecular Devices, Sunnyvale, CA).
(§4) Diffuse large B-cell lymphoma (DLBCL) cell line cultures in log-linear growth rate were treated with combinations of Cpd. No. 15 and combination partners according to a pre-treatment model. Cells were seeded first into 8 flasks and pre-treated with 7 different concentrations of Cpd. […] Cells were harvested from each flask and re-seeded onto the corresponding 384-well plate with the same concentration of Cpd. No. 15. and 9 concentrations of its combination partner in triplicate wells. The final concentration of DMSO (vehicle) in the assay was 0.1% v/v. Fifty microliters of cell line(s) suspension were directly dispensed to the assay-ready plates with an automated multichannel dispenser on to 384-well assay-ready plates. Assay plates were incubated for three days in a humidified atmosphere of 5% CO2 at 37° C. Quantification of the effect of single agents or combinations on cell viability was performed through measurement of cellular adenosine triphosphate (ATP) using CellTiter-Glo® (Promega, Madison, WI). Luminescence was detected using a SpectraMax M5 microplate reader (Molecular Devices, Sunnyvale, CA). Concentration response plots were generated in GraphPad Prism version 8.0 for Windows, GraphPad Software, (La Jolla, CA) and curves fitted to a four-parameter logistic model with variable slope. Percent of inhibition was calculated at each treatment concentration.

[16] = system: SUDHL-6; experiment: as above; type: cell-based; conditions: SUDHL-6 diffuse large B-cell lymphoma cells, 4 days Cpd. No. 15 pre-treatment then 3 days co-treatment
Experimental: as §3, §4

[17] = system: KARPAS422; experiment: as above; type: cell-based; conditions: KARPAS422 diffuse large B-cell lymphoma cells, 4 days Cpd. No. 15 pre-treatment then 3 days co-treatment
Experimental: as §3, §4

[18] = system: WSUDLCL2; experiment: as above; type: cell-based; conditions: WSUDLCL2 diffuse large B-cell lymphoma cells, 4 days Cpd. No. 15 pre-treatment then 3 days co-treatment
Experimental: as §3, §4

CC1(C)CCC(CN2CCN(c3ccc(C(=O)NS(=O)(=O)c4ccc(NCC5CCOCC5)c([N+](=O)[O-])c4)c(Oc4cnc5[nH]ccc5c4)c3)CC2)=C(c2ccc(Cl)cc2)C1 [Venetoclax, venetoclax]
Combination effect (Loewe Volume class) of Cpd. No. 15 with combination partner [1]: Additivity (between 1 and −1: additivity)
Combination effect (Loewe Volume class) of Cpd. No. 15 with combination partner [2]: Synergy (VLoewe>1: synergy)
Combination effect (Loewe Volume class) of Cpd. No. 15 with combination partner [3]: Additivity (between 1 and −1: additivity)
Combination effect (Loewe Volume class) of Cpd. No. 15 with combination partner [4]: Synergy (VLoewe>1: synergy)
Combination effect (Loewe Volume class) of Cpd. No. 15 with combination partner [5]: Additivity (between 1 and −1: additivity)
Combination effect (Loewe Volume class) of Cpd. No. 15 with combination partner [6]: Synergy (VLoewe>1: synergy)
Combination effect (Loewe Volume class) of Cpd. No. 15 with combination partner [7]: Additivity (between 1 and −1: additivity)
Combination effect (Loewe Volume class) of Cpd. No. 15 with combination partner [8]: Additivity (between 1 and −1: additivity)
Combination effect (Loewe Volume class) of Cpd. No. 15 with combination partner [9]: Additivity (between 1 and −1: additivity)
Combination effect (Loewe Volume class) of Cpd. No. 15 with combination partner [10]: Synergy (VLoewe>1: synergy)
Combination effect (Loewe Volume class) of Cpd. No. 15 with combination partner [11]: Additivity (between 1 and −1: additivity)
Combination effect (Loewe Volume class) of Cpd. No. 15 with combination partner [12]: Synergy (VLoewe>1: synergy)
Combination effect (Loewe Volume class) of Cpd. No. 15 with combination partner [13]: Additivity (between 1 and −1: additivity)
Combination effect (Loewe Volume class) of Cpd. No. 15 with combination partner [14]: Synergy (VLoewe>1: synergy)
Combination effect (Loewe Volume class) of Cpd. No. 15 with combination partner [15]: Synergy (VLoewe>1: synergy)
Combination effect (Loewe Volume class) of Cpd. No. 15 with combination partner [16]: Synergy (VLoewe>1: synergy)
Combination effect (Loewe Volume class) of Cpd. No. 15 with combination partner [17]: No effect
Combination effect (Loewe Volume class) of Cpd. No. 15 with combination partner [18]: Synergy (VLoewe>1: synergy)
